For three compounds, Activity, IC50 and IC25 results are on record in ChEMBL document CHEMBL1138922, “Nepsilon-thioacetyl-lysine: a multi-facet functional probe for enzymatic protein lysine Nepsilon-deacetylation” (Bioorg Med Chem Lett, 2006).

Calls of active or inactive are those of the source. No cut-off for these calls is given here.

Test [1] has as its target T1, NAD-dependent protein deacetylase sirtuin-1 (Homo sapiens) (UniProt Q96EB6).
T1 sequence (whole entry): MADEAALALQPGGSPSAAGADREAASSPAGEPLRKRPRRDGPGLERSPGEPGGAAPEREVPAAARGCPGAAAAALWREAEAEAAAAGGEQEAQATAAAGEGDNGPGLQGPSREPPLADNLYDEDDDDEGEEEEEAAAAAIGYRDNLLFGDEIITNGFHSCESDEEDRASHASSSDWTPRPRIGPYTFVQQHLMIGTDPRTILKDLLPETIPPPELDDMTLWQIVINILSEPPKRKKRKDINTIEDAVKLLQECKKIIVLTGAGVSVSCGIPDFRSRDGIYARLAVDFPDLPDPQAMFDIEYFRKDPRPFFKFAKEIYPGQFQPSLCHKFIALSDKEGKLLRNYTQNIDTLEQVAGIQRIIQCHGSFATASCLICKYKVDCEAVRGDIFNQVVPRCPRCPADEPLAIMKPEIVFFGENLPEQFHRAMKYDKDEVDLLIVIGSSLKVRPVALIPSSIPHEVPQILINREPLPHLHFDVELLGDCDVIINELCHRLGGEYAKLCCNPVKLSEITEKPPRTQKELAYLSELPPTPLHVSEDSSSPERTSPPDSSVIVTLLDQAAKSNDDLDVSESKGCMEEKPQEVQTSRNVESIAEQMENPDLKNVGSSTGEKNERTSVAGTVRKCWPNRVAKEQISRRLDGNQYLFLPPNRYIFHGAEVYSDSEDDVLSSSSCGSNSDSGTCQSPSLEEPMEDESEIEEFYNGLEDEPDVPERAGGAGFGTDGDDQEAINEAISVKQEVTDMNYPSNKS
The test can be described thus: Inhibition of human SIRT1 at 2 mM.

Test [2] concerns the target T2, NAD-dependent protein deacetylase sirtuin-1 (Homo sapiens, UniProt Q96EB6).
T2 sequence (Q96EB6 whole entry): T1 sequence (whole entry)
The test can be described thus: (§1) Inhibition of human SIRT1.

The target of test [3] is T1, NAD-dependent protein deacetylase sirtuin-1 (Homo sapiens). Described as §1.

Consider `CC(=O)N[C@@H](CCCC/N=C(/C)S)C(=O)O`, for which the result in test [1] was inactive.

For the compound `CSCC[C@H](NC(=O)[C@H](CC(C)C)NC(=O)[C@H](CCCC/N=C(/C)S)NC(=O)[C@H](CCCCN)NC(=O)[C@H](Cc1c[nH]cn1)NC(=O)[C@H](CCCN=C(N)N)NC(=O)[C@H](CO)NC(=O)[C@@H](NC(=O)[C@H](CO)NC(=O)[C@H](CCC(N)=O)NC(=O)CNC(=O)[C@H](CCCCN)NC(=O)[C@@H](N)CCCCN)[C@@H](C)O)C(=O)N[C@@H](Cc1ccccc1)C(=O)N[C@@H](CCCCN)C(=O)N[C@H](C(=O)N[C@@H](CCC(=O)O)C(=O)NCC(=O)O)[C@@H](C)O`, inhibition in test [2] was half-maximal at 2 µM (IC50). Consider `C/C(S)=N/CCCC[C@H](NC(=O)OCC1c2ccccc2-c2ccccc21)C(=O)O`, for which, in test [3], the 25% effect level (IC25) was put at 2000 µM.
